Measurements as given in publication PMC6063907, “Metal-cation regulation of enzyme dynamics is a key factor influencing the activity of S-adenosyl-L-homocysteine hydrolase from Pseudomonas aeruginosa” (Scientific Reports, 2018).
Like-named read-outs stand apart in the source and are kept apart here.

Legend:
[1] = target: T1, wild type (WT) PaSAHase (Pseudomonas aeruginosa, UniProt Q9I685); type: biochemical; settings: WT enzyme; for kcat/KM: 100 mM MeCl, 25 mM HEPES·MeOH pH 7.5, substrate SAH, 293 K, ± SEM
T1 construct: His-tag with TEV site (from vector pMCSG57) (N, cleaved yes); made in house; host or cells: E. coli BL21-CodonPlus(DE3)-RIPL
Method: (§1) Assays for PaSAHase activity in the hydrolytic direction were carried out spectrophotometrically and the rate of L-homocysteine (Hcy) formation was measured by monitoring its reaction with 5,5′-dithiobis(2-nitrobenzoic acid) (DTNB)[21]. Assays were performed in 3 mL volume in a buffer containing 100 mM MeCl (where Me^+ corresponds to Li^+, Na^+, K^+, Rb^+, or Cs^+ ion) and 25 mM HEPES·MeOH pH 7.5, or a buffer containing 100 mM Tris·HCl pH 7.5. For the Q65A mutein, the experiments were conducted in a buffer containing 100 mM KCl and 25 mM HEPES·KOH pH 7.5. The buffers were supplemented with six units of adenosine deaminase, 100 μM DTNB, and 0.32 μM of PaSAHase or its mutein. The reaction was initiated by the addition of S-adenosyl-L-homocysteine (SAH) at a final concentration from 2.5 to 200 μM. The conversion of Hcy to Hcy-TNB was carried out at 293 K. The reaction progress was measured for one minute and monitored at 412 nm using a U-3900H spectrophotometer (Hitachi). Initial velocity parameters were estimated from the linear region of the recorded curve.
(§2) For the inhibition study, PaSAHase (0.35 μM) in a buffer containing 100 mM KCl and 25 mM Tris·HCl pH 7.5 was incubated with Zn^2+ at different concentrations, ranging from 0.165 to 20 μM. The reaction was initiated by the addition of SAH at a final concentration of 85 μM. The enzymatic activity was followed in the hydrolytic direction by monitoring homocysteine formation via its reaction with DNTB to determine the IC50 constant. For the sample without the addition of Zn^2+ ions, 100% activity was assigned. All measurements were performed in duplicates. The experimental data were analyzed with the GraFit 7.0 software (Erithacus) to obtain the kinetic parameters of the enzymatic reactions: substrate affinity (KM), activity (Vmax), as well as catalytic rate (kcat) or IC50 value for inhibition. The IC50-to-Ki converter[61] was applied to calculate the inhibition constant (Ki) for Zn^2+ ions using the noncompetitive model of inhibition.

[2] = target: human placental SAHase; parameters: method as in PMID 17892301; settings: read-out: inhibition constant; cited from earlier work
[3] = target: T2, PaSAHase (Pseudomonas aeruginosa, UniProt Q9I685); experiment: ITC titration of PaSAHase with metal ions (Zn^2+, K^+); type: binding
T2 construct: His-tag with TEV site (from vector pMCSG57) (N, cleaved yes); made in house; host or cells: E. coli BL21-CodonPlus(DE3)-RIPL
T2 sequence (Q9I685 1-469): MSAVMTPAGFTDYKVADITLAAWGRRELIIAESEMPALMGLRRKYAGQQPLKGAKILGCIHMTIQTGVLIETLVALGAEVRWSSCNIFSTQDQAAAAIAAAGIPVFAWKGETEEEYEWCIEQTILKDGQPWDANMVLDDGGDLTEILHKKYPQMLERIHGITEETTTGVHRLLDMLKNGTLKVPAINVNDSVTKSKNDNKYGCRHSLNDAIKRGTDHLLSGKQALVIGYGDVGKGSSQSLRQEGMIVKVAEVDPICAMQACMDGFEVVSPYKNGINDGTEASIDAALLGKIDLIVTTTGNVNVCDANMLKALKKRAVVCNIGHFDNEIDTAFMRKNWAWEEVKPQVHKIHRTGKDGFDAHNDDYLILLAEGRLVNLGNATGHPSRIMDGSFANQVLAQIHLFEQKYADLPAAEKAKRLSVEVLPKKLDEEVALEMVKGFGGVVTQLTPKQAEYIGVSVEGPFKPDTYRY
Method: (§3) ITC measurements were performed at 293 K using a MicroCal iTC200 calorimeter (GE Healthcare). For the adenosine binding studies, the wild type protein was dialyzed against a buffer containing 100 mM MeCl and 25 mM HEPES·MeOH pH 7.5, or an alkali-cation-free buffer containing 100 mM Tris·HCl pH 7.5. The experiment for the Q65A mutein was conducted in a buffer containing 100 mM KCl and 25 mM HEPES·KOH pH 7.5. The final protein concentrations were in the range of 100–120 µM. Adenosine was dissolved in the dialysis buffers to the concentrations of 0.6 to 1.0 mM. The K^+ ion binding study was conducted in 50 mM Tris·HCl pH 7.5 at PaSAHase concentration of 70 μM. The protein was titrated with 1 mM KCl in 50 mM Tris·HCl pH 7.5. The Zn^2+ ion binding study was conducted in a buffer containing 100 mM KCl and 50 mM Tris·HCl pH 7.5 at PaSAHase concentration of 45 μM. The protein was titrated with 2 mM ZnCl2. In all ITC experiments the ligand was injected to the protein solution (300 μL) in 2 µL aliquots until saturation was observed. The protein concentrations were estimated by the Bradford method and are presented for a single PaSAHase subunit. The raw ITC data were analyzed with the ORIGIN 7.0 software (OriginLab) to obtain the thermodynamic parameters of the complexation reactions: stoichiometry (N), dissociation constant (Kd), as well as changes in enthalpy (ΔH) and entropy (ΔS). For sigmoidal titration curves, the one set of sites model was fitted and N was obtained from the experiment. For hyperbolic curves, for which the determination of N is impossible, N was fixed while fitting the same model. All measurements were performed in duplicates.

[4] = target: T2, PaSAHase; experiment: Time course of PaSAHase inactivation by 2′-deoxyadenosine (NADH formation, spectrofluorimetric); type: biochemical
Method: The measurements were performed at 293 K using an F-7000 spectrofluorotometer (Hitachi) in the volume of 1 mL. Irreversible formation of the reduced form of the cofactor (NADH) was monitored spectrofluorometrically by excitation at 340 nm and measurement of emission at 460 nm, as described previously. The influence of K^+ and Rb^+ ions on the time-dependent inactivation of the enzyme was carried out for 15 μM PaSAHase in a buffer containing 100 mM KCl or RbCl, 25 mM HEPES·KOH or HEPES·RbOH pH 7.5, and 1 mM TCEP·HCl. In the first experiment, the reaction was initiated by the addition of 2′-deoxyadenosine to the final concentration of 5 mM. In the second experiment, the enzyme was incubated for 2 hours with 100 μM adenosine and subsequently 2′-deoxyadenosine was added at a final concentration of 200 μM. After one minute the reaction was monitored for 4000 seconds (first experiment) or until the intensity of fluorescence emission reached a plateau (second experiment). An analogous experiment was carried out to analyze the influence of Zn^2+ cations on the enzyme. […] The cofactor conversion reaction was initiated by the addition of 2′-deoxyadenosine to the final concentration of 5 mM and after one minute was monitored for 5000 seconds.

[5] = target: T2, PaSAHase; experiment: Inhibition of PaSAHase by Zn^2+ ions (DTNB assay); type: biochemical; settings: 100 mM KCl; for Ki: calculated from IC50 with IC50-to-Ki converter, noncompetitive model, 25 mM Tris·HCl pH 7.5, SAH 85 μM, enzyme 0.35 μM, read-out: inhibitory constant Ki
Method: as §2

[6] = target: T3, Q65A PaSAHase (Pseudomonas aeruginosa, UniProt Q9I685, Q65A); experiment: ITC titration of Q65A PaSAHase with adenosine; type: binding
T3 construct: His-tag with TEV site (from vector pMCSG57) (N, cleaved yes); made in house; host or cells: E. coli BL21-CodonPlus(DE3)-RIPL
Method: as §3

[7] = target: T1, wild type (WT) PaSAHase; experiment: ITC titration of wild type PaSAHase with adenosine; type: binding; settings: for stoichiometry (N) / ΔH / ΔS / Kd: pH 7.5, 293 K; for Kd: dissociation constant Kd
Method: as §3

[8] = target: T3, Q65A PaSAHase; type: biochemical; settings: Q65A mutein, 100 mM KCl, 25 mM HEPES·KOH pH 7.5, substrate SAH, 293 K; ± SEM
Method: as §1, §2

[9] = target: the molecule itself; experiment: SEC; Superdex 200 gel filtration in buffer D (100 mM KCl, 25 mM HEPES-KOH pH 7.5, 1 mM TCEP-HCl), after reconstitution with NAD+
[10] = Q65A, 100 mM K^+, pH 7.5, 293 K

T3 sequence (Q9I685 whole entry Q65A): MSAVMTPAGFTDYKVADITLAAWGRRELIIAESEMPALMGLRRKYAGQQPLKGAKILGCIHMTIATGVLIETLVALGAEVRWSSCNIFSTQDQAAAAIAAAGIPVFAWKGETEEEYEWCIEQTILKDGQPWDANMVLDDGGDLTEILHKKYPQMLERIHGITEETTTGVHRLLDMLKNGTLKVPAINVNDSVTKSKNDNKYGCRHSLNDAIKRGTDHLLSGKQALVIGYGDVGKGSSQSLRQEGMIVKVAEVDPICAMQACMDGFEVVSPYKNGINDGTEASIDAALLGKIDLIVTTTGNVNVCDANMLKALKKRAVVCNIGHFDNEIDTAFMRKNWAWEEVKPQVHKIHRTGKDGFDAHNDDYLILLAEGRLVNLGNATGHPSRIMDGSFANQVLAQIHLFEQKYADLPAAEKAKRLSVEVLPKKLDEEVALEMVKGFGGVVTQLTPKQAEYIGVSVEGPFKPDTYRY

`[Li+]` [Li^+] gave a kcat/KM [1] of 731 ± 143 M⁻¹ s⁻¹.

In the case of `[Cu+2]` [copper], the Ki [2] is listed as roughly 25 nM.

For `[Cs+]` [Cs^+], the kcat/KM [1] was 6668 ± 333 M⁻¹ s⁻¹.

With `[Zn+2]` [Zn^2+] the “stoichiometry of protein:Zn^2+ binding, per one subunit” value ([3]; 100 mM KCl, 50 mM Tris·HCl pH 7.5, 45 μM enzyme, 2 mM ZnCl2, 293 K) was 0.90 ± 0.06, the Kd ([3]; 100 mM KCl, 50 mM Tris·HCl pH 7.5, 45 μM enzyme, 2 mM ZnCl2, 293 K, read-out: apparent binding constant Kd) was 12700 ± 2900 nM and the “rate of NADH formation” value ([4]; 100 mM KCl, enzyme incubated with adenosine (200 μM) and ZnCl2 (1, 5 or 10 μM), then 5 mM 2′-deoxyadenosine) was “gradually decreased with increasing Zn^2+ concentration”. The mode of inhibition ([5]; 25 mM Tris·HCl pH 7.5) was “very strong noncompetitive inhibitor”, the Ki ([5]; listed as zinc) was roughly 15 nM and the Ki [5] was 15 nM.

In the case of `[Rb+]` [Rb^+], the kcat/KM [1] is reported as 3568 ± 237 M⁻¹ s⁻¹, the mode of inhibition ([1]; 100 mM RbCl, kinetics with SAH) is reported as “noncompetitive inhibitor” and the “drop of kcat compared with K^+” value ([1]; relative to kcat in the presence of K^+) is reported as roughly 33 fold. For the same molecule, the “rate of NADH formation compared with K^+” value ([4]; enzyme first incubated with 100 μM adenosine, then 200 μM 2′-deoxyadenosine added, 100 mM RbCl) was “significantly lower”.

With `Nc1ncnc2c1ncn2[C@@H]1O[C@H](CO)[C@@H](O)[C@H]1O` [adenosine] the Kd [6] was 7300 ± 400 nM, the “stoichiometry (N)” value [6, 10] was 0.236 ± 0.004 and the ΔH [6, 10] was -7.447 ± 0.167 kcal/mol. For the same molecule, the “stoichiometry (N)” value ([7]; 100 mM Cs^+) was 0.94 ± 0.02, the ΔH ([7]; 100 mM Cs^+) was -4.174 ± 0.115 kcal/mol and the ΔS ([7]; 100 mM Cs^+) was 10.1 cal/mol/°. The “stoichiometry (N)” value ([7]; 100 mM K^+) was 0.80 ± 0.01, the ΔH ([7]; 100 mM K^+) was -9.665 ± 0.237 kcal/mol and the ΔS ([7]; 100 mM K^+) was −5.9 cal/mol/°. The “stoichiometry (N)” value ([7]; 100 mM Na^+) was 0.97 ± 0.02, the ΔH ([7]; 100 mM Na^+) was -3.891 ± 0.114 kcal/mol and the ΔS ([7]; 100 mM Na^+) was 9.8 cal/mol/°. The “stoichiometry (N)” value ([7]; 100 mM Rb^+) was 0.84 ± 0.01, the ΔH ([7]; 100 mM Rb^+) was -8.935 ± 0.137 kcal/mol and the ΔS ([7]; 100 mM Rb^+) was −4.2 cal/mol/°. The Kd ([7]; 100 mM Cs^+) was 4700 ± 600 nM, the Kd ([7]; 100 mM K^+) was 1200 ± 200 nM and the Kd ([7]; 100 mM Na^+) was 8800 ± 1000 nM. The Kd ([7]; 100 mM Rb^+) was 1800 ± 200 nM and the “heat effect of ITC titration” value ([7]; in the absence of any alkali metals or the presence of Li^+ ions) was “immeasurably small”.

With `[K+]` [K^+] the “heat effect of ITC titration of ligand- and alkali-metal-free PaSAHase” value ([3]; 50 mM Tris·HCl pH 7.5, 70 μM PaSAHase, titrated with 1 mM KCl) was “No effect other than K^+ dilution heat”, the kcat/KM [1] was 72502 ± 4858 M⁻¹ s⁻¹ and the kcat/KM [8] was 5322 ± 358 M⁻¹ s⁻¹.

`[Na+]` [Na^+] gave a kcat/KM [1] of 8467 ± 940 M⁻¹ s⁻¹.

B1: S-adenosyl-L-homocysteine hydrolase from Pseudomonas aeruginosa (enzyme, Pseudomonas aeruginosa PAO1)
chain: SNAMSAVMTPAGFTDYKVADITLAAWGRRELIIAESEMPALMGLRRKYAGQQPLKGAKILGCIHMTIQTGVLIETLVALGAEVRWSSCNIFSTQDQAAAAIAAAGIPVFAWKGETEEEYEWCIEQTILKDGQPWDANMVLDDGGDLTEILHKKYPQMLERIHGITEETTTGVHRLLDMLKNGTLKVPAINVNDSVTKSKNDNKYGCRHSLNDAIKRGTDHLLSGKQALVIGYGDVGKGSSQSLRQEGMIVKVAEVDPICAMQACMDGFEVVSPYKNGINDGTEASIDAALLGKIDLIVTTTGNVNVCDANMLKALKKRAVVCNIGHFDNEIDTAFMRKNWAWEEVKPQVHKIHRTGKDGFDAHNDDYLILLAEGRLVNLGNATGHPSRIMDGSFANQVLAQIHLFEQKYADLPAAEKAKRLSVEVLPKKLDEEVALEMVKGFGGVVTQLTPKQAEYIGVSVEGPFKPDTYRY
notes: short tripeptide (SNA-) cloning artifact that extends the N-terminus of the purified protein; S-adenosyl-L-homocysteine hydrolase, Pseudomonas aeruginosa PAO1; about 53 kDa by SDS-PAGE; Batches were either Zn2+-containing or freed of Zn2+ with TPEN; The vector pMCSG57 is named, the tag itself is not; also called PaSAHase; SAHase
In the case of B1, the “stoichiometry N” value [9] is reported as 4.
